Details: male, Sprague Dawley, rat, in vivo, po, 5 mg/kg
Experimental: A 25 μl aliquot of sample was subjected to protein precipitation using 150 μl of acetonitrile containing 100 ng/ml of internal standard (glyburide). After vortex and centrifugation for 5 minutes at 4000 revolutions per minute, 125 μl of supernatant was transferred to a 1 ml 96-well plate, followed by the addition of 50 μl of water. The analysis was conducted by using HPLC separation coupled with mass spectrometric detection.
Agilent 1100 (Santa Clara, CA) was used for LC separations coupled with CTC PAL (Zwingen, Switzerland). […] A Sciex API 4000 Q Trap mass spectrometer equipped with a Turbo Ionspray interface from Applied Biosystems (Framingham, MA) was used for detection. The instrument was operated in the positive ion MRM mode employing nitrogen as a collision gas. […] Data were acquired and processed by Sciex Analyst 1.5.2 software.
Standard regression and back-calculation of unknown concentrations were performed by Thermo Watson 7.4 software purchased from Thermo Fisher Scientific, Inc. (Philadelphia, PA). Quantification of the parent compound in rat blood was based on at least 5-point calibration curve. […] The bias of all calibration standards and quality control samples was within the acceptance criteria of ± 30%.

CC(C)[C@@]12C[C@@H](O)[C@@](C)(O1)[C@@H]1CC[C@@H](C)[C@H]1[C@@H]2OC(=O)/C=C/c1ccccc1 [Englerin B]
blood levels of englerin B after dosing englerin A: > 50 nM

— publication PMC4476799, “Englerin A Agonizes the TRPC4/C5 Cation Channels to Inhibit Tumor Cell Line Proliferation” (PLoS ONE, 2015)
